The target in assay [1] is T1, rhPREP (Homo sapiens, UniProt P48147).
T1 construct: purchased R&D Systems
T1 sequence (P48147 1-710): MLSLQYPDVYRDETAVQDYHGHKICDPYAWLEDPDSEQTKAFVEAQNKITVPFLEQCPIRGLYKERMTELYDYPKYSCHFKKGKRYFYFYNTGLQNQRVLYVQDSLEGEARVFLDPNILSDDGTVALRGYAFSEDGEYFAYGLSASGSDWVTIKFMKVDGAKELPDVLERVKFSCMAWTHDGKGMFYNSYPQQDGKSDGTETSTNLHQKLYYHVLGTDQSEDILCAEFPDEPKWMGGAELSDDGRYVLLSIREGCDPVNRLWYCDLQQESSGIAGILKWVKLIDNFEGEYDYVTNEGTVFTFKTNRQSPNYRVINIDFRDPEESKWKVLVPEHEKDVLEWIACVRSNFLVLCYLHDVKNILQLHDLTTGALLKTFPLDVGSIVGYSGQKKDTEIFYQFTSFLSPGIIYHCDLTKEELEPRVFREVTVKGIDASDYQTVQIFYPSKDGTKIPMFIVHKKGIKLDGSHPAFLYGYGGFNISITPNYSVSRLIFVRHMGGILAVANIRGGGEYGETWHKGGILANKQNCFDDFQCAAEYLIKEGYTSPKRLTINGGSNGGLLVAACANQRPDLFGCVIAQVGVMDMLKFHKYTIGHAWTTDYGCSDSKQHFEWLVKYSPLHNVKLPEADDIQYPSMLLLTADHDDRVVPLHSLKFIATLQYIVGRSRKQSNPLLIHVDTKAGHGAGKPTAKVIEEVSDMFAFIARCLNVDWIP
Description: Probe cleavage by recombinant human PREP (fluorescence plate assay, MALDI confirmation). In kind it is biochemical. The settings on record: probe 5 µM, rhPREP 0.1 µg/ml, TRIS buffer pH 7.5, read 480/530 nm, n=3 run in triplicate.

The target in assay [2] is T2, rhFAP (Homo sapiens, UniProt Q12884).
T2 construct: purchased R&D Systems
T2 sequence (Q12884 26-760 limits assumed): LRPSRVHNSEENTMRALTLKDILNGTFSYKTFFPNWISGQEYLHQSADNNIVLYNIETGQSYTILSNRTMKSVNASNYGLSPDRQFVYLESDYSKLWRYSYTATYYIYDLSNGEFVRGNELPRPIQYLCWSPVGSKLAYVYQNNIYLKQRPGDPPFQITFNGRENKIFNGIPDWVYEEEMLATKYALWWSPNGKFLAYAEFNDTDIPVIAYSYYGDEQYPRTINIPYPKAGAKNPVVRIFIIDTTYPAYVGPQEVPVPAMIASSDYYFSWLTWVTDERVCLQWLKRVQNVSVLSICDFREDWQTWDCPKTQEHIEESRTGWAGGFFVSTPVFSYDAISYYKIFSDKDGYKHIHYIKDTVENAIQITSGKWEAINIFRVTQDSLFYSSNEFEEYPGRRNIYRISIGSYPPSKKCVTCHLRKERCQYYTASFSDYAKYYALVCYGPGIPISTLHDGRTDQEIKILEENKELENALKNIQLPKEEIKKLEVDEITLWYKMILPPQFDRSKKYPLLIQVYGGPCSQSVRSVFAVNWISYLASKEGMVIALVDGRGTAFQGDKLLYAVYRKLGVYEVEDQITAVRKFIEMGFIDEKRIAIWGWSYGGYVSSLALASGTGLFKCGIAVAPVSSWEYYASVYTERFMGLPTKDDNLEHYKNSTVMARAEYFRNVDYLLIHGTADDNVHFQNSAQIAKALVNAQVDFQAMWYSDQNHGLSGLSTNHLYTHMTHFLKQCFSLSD
The experiment in a line: Probe cleavage by recombinant human FAP (fluorescence plate assay, MALDI confirmation). In kind it is biochemical. To be noted: probe 5 µM; for Cleavage by rhFAP (fluorescence signal): rhFAP 0.1 µg/ml, TRIS buffer (pH 7.5), 20 µl, read 480/530 nm, n=3 run in triplicate; for FAP specificity (over PREP): rhFAP compared with rhPREP, each 0.1 µg/ml.

The target in assay [3] is rhDPPIV (Homo sapiens, UniProt P27487). Description: Probe cleavage by recombinant human DPP-IV (exopeptidase activity). The settings on record: probe 5 µM, rhDPPIV 0.1 µg/ml, TRIS buffer pH 7.5, read 480/530 nm, n=3 run in triplicate.
Description: Recombinant human enzymes [rhFAP (R&D Systems), rhPREP (R&D Systems) and rhDPPIV (Biolegend)] were stored in stocks at -70°C and diluted as required to be used at final concentration of 0.1 µg/ml. Enzymes were aliquoted upon receipt from the supplier and new stocks made from a fresh aliquot as required.
Assays were undertaken in triplicate in blackened 384 well plates on ice prior to spectral reads. […] All wells contained a final volume of 20 µl to include buffers, inhibitors (if used), substrates and recombinant human enzymes (at a concentration of 0.1 µg/ml unless otherwise stated). […] Plates were sealed with an optical plate sealer (Biolegend) and were read in a preheated spectrophotometer (Synergy Biotek) in monochromator-based mode at 380/460 nm for control substrates and 480/530 nm for synthesised FAP probes.
Assay [4] relates to NSCLC patient tissue samples. Description: Fluorescence intensity and lifetime imaging (FLIM) of ex vivo NSCLC tissue. Details: species or system human. The settings on record: Talabostat at a dilution of 1:1000 with FAP3 5 µM, N=5. How it is done: For imaging solutions, varying concentrations of rhFAP were prepared in blackened eppendorfs and FAP3 to a final concentration of 5µM added and imaged as below. For biological specimens, NSCLC patient tissue samples from surgical resection were used fresh or snap frozen and stored at -80°C until required. Small fragments (approx. 4mm^3) incubated at 37°C in a 96 well plate in phenyl-red free DMEM (Gibco) containing 10% FCS, 1% Penicillin-streptomycin and 1% L-Glutamine. For the tissue fragments to be used as inhibitor controls, we added Talabostat at a dilution of 1:1000. Samples were then imaged using a clinically approved fluorescence lifetime imaging system used in conjunction with an imaging fibre ([30]) providing a 400 x 400 µm field of view. The imaging system incorporates a pulsed supercontinuum laser source, in this case tuned for excitation at 488 nm, with an achromatic confocal laser scanning system and a time-resolved spectrometer. This spectrometer contains a 512 channel single photon avalanche diode (SPAD) sensor ([31]) allowing for the rapid collection of time resolved spectral fluorescence lifetime data. Fluorescence intensity and lifetime images were collected using an image resolution of 160 x 160 pixels over a 498 – 570 nm spectral range with an exposure time of 13 µs per pixel. This led to an imaging rate of ~3 frames per second.
For each condition, the tumour samples were imaged using a fibre placed at the surface of the tissue (baseline), and then again at 10-minute intervals following the additions of equimolar concentrations of probe +/- Inhibitor. For imaging solutions, the fibre was held within the solution and imaged every 5 minutes. Each condition and time-point data for both fluorescence intensity and lifetime were collected. Imaging sequences had non-relevant frames removed, and the entire field of view was analysed. Analysis was undertaken using a bespoke software suite utilising the rapid lifetime determination (RLD) method ([32]). […]

Assay [5] relates to DPP-IV. To be noted: cited from earlier work. The text has this: As starting point for our study, a peptide sequence previously published within a FAP optical reporter was synthesised (GPGPNQ), which had been determined to be FAP specific over DPP-IV but had not been assessed against PREP ([24]). We synthesised the reported peptide sequence but for FRET pairing we utilised a Carboxyfluorescein (FAM) fluorophore with a Methyl Red quencher ( Figure 1A ) as an alternative to Cy5.5/QSY21. The peptide sequence was synthesized by Fmoc solid-phase peptide synthesis on ChemMatrix resin using Oxyma/DIC as the coupling combination. FAM was incorporated at the N-termi ...

Non-standard residues stand in square brackets, D forms with d. Residues, ends and D or L forms follow the SMILES beside them. *: point of attachment. 5FAM = O=C1OC2(c3ccc(O)cc3Oc3cc(O)ccc32)c2ccc(C(=O)*)cc21; MethylRed = CN(C)c1ccc(/N=N/c2ccccc2C(=O)*)cc1; AEEA = NCCOCCOCC(=O)O; βAla = NCCC(=O)O

Sequence of rhDPPIV (P27487 29-766 limits assumed): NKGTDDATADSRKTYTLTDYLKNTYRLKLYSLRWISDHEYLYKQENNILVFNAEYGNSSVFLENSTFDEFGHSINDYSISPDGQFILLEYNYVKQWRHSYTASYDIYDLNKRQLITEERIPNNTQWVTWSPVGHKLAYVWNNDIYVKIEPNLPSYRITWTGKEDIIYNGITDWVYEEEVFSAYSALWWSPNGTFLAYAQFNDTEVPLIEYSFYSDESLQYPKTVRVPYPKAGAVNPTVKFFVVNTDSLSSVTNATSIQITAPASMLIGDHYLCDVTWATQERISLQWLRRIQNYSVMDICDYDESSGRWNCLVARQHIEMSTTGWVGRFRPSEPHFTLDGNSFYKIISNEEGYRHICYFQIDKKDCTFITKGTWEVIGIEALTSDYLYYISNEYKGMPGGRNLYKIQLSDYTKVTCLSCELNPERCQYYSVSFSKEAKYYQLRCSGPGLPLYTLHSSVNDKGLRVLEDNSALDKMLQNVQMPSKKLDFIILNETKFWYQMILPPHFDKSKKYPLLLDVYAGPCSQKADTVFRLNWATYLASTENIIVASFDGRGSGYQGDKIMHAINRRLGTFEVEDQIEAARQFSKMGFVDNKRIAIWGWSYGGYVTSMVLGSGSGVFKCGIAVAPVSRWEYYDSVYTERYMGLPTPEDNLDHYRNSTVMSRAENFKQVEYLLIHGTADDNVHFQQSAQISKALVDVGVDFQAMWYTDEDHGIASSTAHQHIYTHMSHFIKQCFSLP

For `C[C@H](NC(=O)[C@@H](N)CCCCNC(=O)c1ccccc1/N=N/c1ccc(N(C)C)cc1)C(=O)N1CCC[C@H]1C(=O)N[C@@H](CO)C(=O)N[C@@H](CCCCNC(=O)c1ccc2c(c1)C(=O)OC21c2ccc(O)cc2Oc2cc(O)ccc21)C(=O)NCCOCCOCC(=O)N[C@H](CCCCN)C(=O)NCCOCCOCC(=O)N[C@H](CCCCN)C(=O)NCCOCCOCC(=O)N[C@H](CCCCN)C(N)=O` [FAP2AAla] (H-K(MethylRed)APSK(5FAM)[AEEA][dK][AEEA][dK][AEEA][dK]-NH2), the “Cleavage by rhPREP (fluorescence signal)” value in assay [1] is “demonstrated cleavage by PREP”. For the same compound, the “Cleavage by rhFAP (fluorescence signal)” value in assay [2] was “FAP activity was absent”.
`C[C@@H](NC(=O)[C@@H](N)CCCCNC(=O)c1ccccc1/N=N/c1ccc(N(C)C)cc1)C(=O)N1CCC[C@H]1C(=O)N[C@@H](CO)C(=O)N[C@@H](CCCCNC(=O)c1ccc2c(c1)C(=O)OC21c2ccc(O)cc2Oc2cc(O)ccc21)C(=O)NCCOCCOCC(=O)N[C@H](CCCCN)C(=O)NCCOCCOCC(=O)N[C@H](CCCCN)C(=O)NCCOCCOCC(=O)N[C@H](CCCCN)C(N)=O` [FAP2BD-Ala] (H-K(MethylRed)[dA]PSK(5FAM)[AEEA][dK][AEEA][dK][AEEA][dK]-NH2): in assay [2], the “Cleavage by rhFAP (fluorescence signal)” value is listed as “reduced signal” and the “FAP specificity (over PREP)” value is recorded as “FAP specificity over PREP”.
As for `CN(C)c1ccc(/N=N/c2ccccc2C(=O)NCCCC[C@H](N)C(=O)N[C@H](CO)C(=O)N2CCC[C@H]2C(=O)N[C@@H](CO)C(=O)N[C@@H](CCCCNC(=O)c2ccc3c(c2)C(=O)OC32c3ccc(O)cc3Oc3cc(O)ccc32)C(=O)NCCOCCOCC(=O)N[C@H](CCCCN)C(=O)NCCOCCOCC(=O)N[C@H](CCCCN)C(=O)NCCOCCOCC(=O)N[C@H](CCCCN)C(N)=O)cc1` [FAP2CD-Ser] (H-K(MethylRed)[dS]PSK(5FAM)[AEEA][dK][AEEA][dK][AEEA][dK]-NH2), the “Cleavage by rhPREP (fluorescence signal)” value in assay [1] is given as “without PREP cleavage”. Moreover, in assay [2], the “Cleavage by rhFAP (fluorescence signal)” value was “highest rate of cleavage” and the “FAP specificity (over PREP)” value is on record as “FAP specificity over PREP”. In addition, the “Cleavage by rhFAP (fluorescence signal)” value in assay [2] (listed as D-Ser) is given as “reduced signal”.
For `C[C@H](O)[C@@H](NC(=O)[C@@H](N)CCCCNC(=O)c1ccccc1/N=N/c1ccc(N(C)C)cc1)C(=O)N1CCC[C@H]1C(=O)N[C@@H](CO)C(=O)N[C@@H](CCCCNC(=O)c1ccc2c(c1)C(=O)OC21c2ccc(O)cc2Oc2cc(O)ccc21)C(=O)NCCOCCOCC(=O)N[C@H](CCCCN)C(=O)NCCOCCOCC(=O)N[C@H](CCCCN)C(=O)NCCOCCOCC(=O)N[C@H](CCCCN)C(N)=O` [FAP2DD-Thr] (H-K(MethylRed)[dT]PSK(5FAM)[AEEA][dK][AEEA][dK][AEEA][dK]-NH2), in assay [2], the “Cleavage by rhFAP (fluorescence signal)” value is “reduced signal” and the “FAP specificity (over PREP)” value was “FAP specificity over PREP”.
Consider `CN(C)c1ccc(/N=N/c2ccccc2C(=O)NCCCC[C@H](N)C(=O)N[C@H](Cc2ccc(O)cc2)C(=O)N2CCC[C@H]2C(=O)N[C@@H](CO)C(=O)N[C@@H](CCCCNC(=O)c2ccc3c(c2)C(=O)OC32c3ccc(O)cc3Oc3cc(O)ccc32)C(=O)NCCOCCOCC(=O)N[C@H](CCCCN)C(=O)NCCOCCOCC(=O)N[C@H](CCCCN)C(=O)NCCOCCOCC(=O)N[C@H](CCCCN)C(N)=O)cc1` [FAP2ED-Tyr] (H-K(MethylRed)[dY]PSK(5FAM)[AEEA][dK][AEEA][dK][AEEA][dK]-NH2), for which the “Cleavage by rhFAP (fluorescence signal)” value in assay [2] is listed as “loss of FAP activity”.
As for `CN(C)c1ccc(/N=N/c2ccccc2C(=O)NCCCC[C@H](N)C(=O)NCCC(=O)N2CCC[C@H]2C(=O)N[C@@H](CO)C(=O)N[C@@H](CCCCNC(=O)c2ccc3c(c2)C(=O)OC32c3ccc(O)cc3Oc3cc(O)ccc32)C(=O)NCCOCCOCC(=O)N[C@H](CCCCN)C(=O)NCCOCCOCC(=O)N[C@H](CCCCN)C(=O)NCCOCCOCC(=O)N[C@H](CCCCN)C(N)=O)cc1` [FAP2Fβ-Ala] (H-K(MethylRed)[βAla]PSK(5FAM)[AEEA][dK][AEEA][dK][AEEA][dK]-NH2), in assay [2], the “Cleavage by rhFAP (fluorescence signal)” value was “reduced signal” and the “FAP specificity (over PREP)” value is recorded as “FAP specificity over PREP”.
Consider `CC(C)[C@H](NC(=O)[C@@H](N)CCCCNC(=O)c1ccccc1/N=N/c1ccc(N(C)C)cc1)C(=O)N[C@H](CO)C(=O)N1CCC[C@H]1C(=O)N[C@@H](CO)C(=O)N[C@@H](CCC(N)=O)C(=O)NCC(=O)N[C@@H](CCCCNC(=O)c1ccc2c(c1)C(=O)OC21c2ccc(O)cc2Oc2cc(O)ccc21)C(=O)NCCOCCOCC(=O)N[C@H](CCCCN)C(=O)NCCOCCOCC(=O)N[C@H](CCCCN)C(=O)NCCOCCOCC(=O)N[C@H](CCCCN)C(N)=O` [FAP-sP, reference compound] (H-K(MethylRed)V[dS]PSQGK(5FAM)[AEEA][dK][AEEA][dK][AEEA][dK]-NH2), for which the “Cleavage by rhPREP (fluorescence signal)” value in assay [1] is “no rhPREP cleavage”. In addition, in assay [2], the “FAP specificity (over PREP)” value is on record as “demonstrated FAP specificity”. Moreover, the “Cleavage by DPP-IV (exopeptidase activity, fluorescence signal)” value in assay [3] is on record as “no cleavage”.
One may read the IC50 as the concentration needed to halve the response being measured. As to `CC(C)[C@H](N)C(=O)N1CCC[C@H]1B(O)O` [Talabostat, Val-boroPro, reference compound], the “Inhibition of FAP3 intensity and lifetime change in NSCLC tissue” value in assay [4] is “abrogated”. Further, in assay [5], the IC50 was 4 nM.

These data come from paper PMC8961646, “Fibroblast Activation Protein Specific Optical Imaging in Non-Small Cell Lung Cancer” (Frontiers in Oncology, 2022).
